This note sets out measurements from patent US20090012088A1 (priority 2005, published 2009).

Structures are written as SMILES. “Also recorded” adds a separate entry of the source. Where two headings read alike, the source gives them in different places.

For data set [1], the system named is neuronally differentiated PC-12 cells. Briefly: Protection from MPP+ induced toxicity in neuronally differentiated PC-12 cells. In kind it is cell-based. The following applies: 10 μM MPP+, read-out: EC50 (IC50) for protection from MPP+ induced cell death. The method, then: (§1) In vivo MPTP is metabolized to its active form, the 1-methyl-4-phenylpyridinium ion (MPP^+), and MPP^+ has proven very useful in a variety of cell culture models of PD. To determine the protective effect of PIP-1 on cells subjected to MPP^+ insult, PC-12 (differentiated as above) and SK-N-SH (differentiated with retinoic acid for 12 days) cells are treated with 10 μM MPP^+ and a range of PIP-1 concentrations, and cell death is assessed by propidium iodide staining and flow cytometry. […] As shown in FIGS. 20A and 20B, PIP-1 also protects differentiated PC-12 and SK-N-SH cells from rotenone-induced toxicity as well.
(§2) Cell culture conditions: HL-60 and SK-N-SH cells are grown in RPMI 1640 media supplemented with 10% FBS and PC-12 cells are grown in RPMI 1640 media supplemented with 10% HS and 5% FBS. All cell lines are incubated at 37° C. in a 5% CO2, 95% air atmosphere. HL-60 cells are split every two to three days as needed and SK-N-SH cells are split when they reach approximately 90% confluency at a 1:6 ratio. […]
(§3) Protection of Rotenone and MPP^+ induced toxicity in PC-12 and SK-N-SH cells: SK-N-SH and PC-12 cells are neuronally differentiated as described above. […] The cells are then washed in PBS and the viability is determined by adding propidium iodide to 1 μg/mL and measuring the fluorescent intensity of each cell by flow cytometry.

The test system of data set [2] is neuronally differentiated SK-N-SH cells. Briefly: Protection from MPP+ induced toxicity in neuronally differentiated SK-N-SH cells. Format: cell-based. The following applies: 10 μM MPP+, 72 h, read-out: EC50 (IC50) for protection from MPP+ induced cell death. The method, then:
as §1, §2, §3

The test system of data set [3] is differentiated PC-12 and SK-N-SH cells. Briefly: Cellular toxicity in differentiated PC-12 and SK-N-SH cells. To be noted: at concentrations up to 100 μM. In kind it is cell-based. The method, then: as §1
Protection of Rotenone and MPP^+ induced toxicity in PC-12 and SK-N-SH cells: SK-N-SH and PC-12 cells are neuronally differentiated as described above. 10 μM rotenone, 10 μM MPP^+ and various concentrations of PIP-1 or its derivatives are added to the cells and incubated for 72 h. The cells are then washed in PBS and the viability is determined by adding propidium iodide to 1 μg/mL and measuring the fluorescent intensity of each cell by flow cytometry.

In data set [4] the test system is PARG. Briefly: Table 2: small molecules tested for PARG inhibition activity (relative to PIP-1). Format: biochemical.
In data set [5] the test system is MPTP-treated C57 Black mice. Briefly: MPTP mouse model of PD, striatal monoamine levels. In kind it is in vivo. The procedure:
As a prelude to assessment of PIP-1 in a mouse model of PD, the ability of PIP-1 to penetrate the blood-brain-barrier is first assessed. PIP-1 is injected i.p. at a dose of 50 mg/kg, and mice are sacrificed at 1 and 2 h post injection. After sacrifice, to establish the presence of PIP-1 in the brain the striatum was dissected, sonicated in perchloric acid, and centrifuged. The clarified supernatant is analyzed by HPLC. No endogenous compounds interfere with this assay for PIP-1 as no signal is detected in dissected striata from non-treated mice. As shown by FIG. 21A, the striatal penetrance of PIP-1 is at the level of 70 ng/mg of protein. […] Given this blood-brain-barrier penetrance by PIP-1, the compound is assessed in the MPTP mouse model of PD. Mice are given a one-time i.p. injection of PIP-1 followed 30 minutes later by an injection of MPTP (30 mg/kg). PIP-1 is assessed at concentrations of 0 mg/kg, 1 mg/kg, 5 mg/kg, 10 mg/kg, and 50 mg/kg, and five mice are used in each group. After 30 days, the mice are sacrificed and the striatum dissected and analyzed by HPLC to determine the levels of dopamine and various dopamine metabolites. […]

The term EC50 denotes the concentration needed to bring the measured effect to its halfway point.

`CN(C)c1cnn(-c2ccccc2)c(=O)c1N` [PIP-1, 4-Amino-5-dimethylamino-2-phenyl-2H-pyridazin-3-one]: the concentration for a half-maximal effect (EC50) in data set [1] (72 h) was 1810 nM; in data set [1] (Rattus norvegicus, PC-12, 72 h), about 1800 nM; in data set [2] it was 1640 nM; in data set [2] (Homo sapiens, SK-N-SH), about 1800 nM. In data set [3], the “Cellular toxicity / adverse effects on differentiated neurons” value is “no adverse effects; also recorded: no cellular toxicity”. The Activity result in data set [4] was “good”. In addition, the “Striatal levels of dopamine and dopamine metabolites (DOPAC, HVA) in MPTP-treated mice” value in data set [5] (50 mg/kg PIP-1 i.p. 30 min before MPTP 30 mg/kg, after 30 days) is recorded as “very similar to the control mice”. Further, in data set [5] (mice, without MPTP), the “Effect of PIP-1 by itself on levels of dopamine or dopamine metabolites” value is “does not appear to have any adverse effects”.
